How the values were obtained:
[1] = Phosphate buffered physiological saline (PBS) solution stability test; format: physicochemical; details: PBS, 37° C., after 6.5 hours, HPLC
Description: 0.148 mL of the doxorubicin-bonded glutamic acid derivative PBS solution was dissolved in 0.148 mL of a PBS solution, and the solution was allowed to react at 37° C.
PBS (0.100 mL) was added to the EHC-bonded glutamic acid derivative solution (0.100 mL), and the mixture was allowed to react at 37° C. The reaction liquid was analyzed by HPLC, and thereby the residual ratio of the EHC-bonded glutamic acid derivative was determined.
PBS (0.117 mL) was added to the camptothecin-bonded glutamic acid derivative solution (0.117 mL), and the mixture was allowed to react at 37° C. The reaction liquid was analyzed by HPLC, and thereby the residual ratio of the glutamic acid derivative was determined.
The reaction liquid was analyzed by HPLC, and thereby the residual ratio of the EHC-bonded glutamic acid derivative was determined.

[2] = tested on: OS-RC-2 cells having high GGT activity; test: cells; format: cell-based, human; details: Homo sapiens; OS-RC-2 cells, 10 μM, 6 hours exposure then 3 days incubation; read-out: Cell proliferation inhibitory activity
Description: (§1) After the cells were incubated for 6 hours, the interior of the wells was washed, and after the cells were further incubated for 3 days, the cells were immobilized with methanol and stained using Methylene Blue dye. After staining, the dye was extracted with a 0.3% aqueous solution of hydrochloric acid was extracted, and the light absorbance at 660 nm was measured. For the light absorbance thus obtained, the cell proliferation suppressive activity was evaluated based on the reduction ratio for the light absorbance measured from cells to which the compound was not added.
(§2) By a similar operation, the cell proliferation suppressive activity was evaluated from the light absorbance, using doxorubicin that was not converted to a glutamic acid derivative. The results are shown in FIG. 1 (OS-RC-2 cells having high GGT activity) and FIG. 2 (SK-OV-3 cells having low GGT activity).
(§3) The cell proliferation inhibitory activity of the EHC-bonded glutamic acid derivative according to Synthesis Example 6 was evaluated using OS-RC-2 cells (RIKEN BioResource Center), which are known to have high GGT activity, and SK-OV-3 cells (American Type Culture Collection), which are known to have low GGT activity.
(§4) On a 96-well plate, OS-RC-2 cells having high GGT activity and SK-OV-3 cells having low GGT activity were each inoculated in an amount of 4,000 cells/well and were incubated for one day at 37° C. and 5% CO2, and then the EHC prodrug according to Synthesis Example 6 was added to the cells at a final concentration of 0.0001 to 1 μM. After the cells were incubated for 6 hours, the interior of the wells was washed, and the cells were further incubated for 3 days. After the incubation, the cells were immobilized with methanol and were stained using Methylene Blue dye. After staining, the dye was extracted with a 0.3% aqueous solution of hydrochloric acid, and the light absorbance at 660 nm was measured. The cell proliferation suppressive activity was evaluated based on the reduction ratio for the light absorbance thus obtained, with respect to the light absorbance measured from cells to which the compound was not added.
(§5) By a similar operation, EHC, which was an active ingredient of Synthesis Example 6, was used without modification, and the cell proliferation suppressive activity was evaluated from the light absorbance.

[3] = tested on: SK-OV-3 cells having low GGT activity; test: cells; format: cell-based; details: Homo sapiens; SK-OV-3 cells, 10 μM, 6 hours exposure then 3 days incubation; read-out: Cell proliferation inhibitory activity
Description: as §1, §2, §3, §4, §5

[4] = tested on: OS-RC-2 cells having high GGT activity; format: cell-based, human; details: GGsTop 10 μM, compound 0.039 to 10 μM
Description: OS-RC-2 cells were inoculated by a method similar to that of Test Example 3. […] After the cells were incubated for 6 hours, the interior of the wells was washed, and after the cells were further incubated for 3 days, the cell proliferation suppressive activity was evaluated by a method similar to that of Test Example 3.
By a similar operation, the cell proliferation suppressive activity was evaluated using doxorubicin that was not glutamic acid-derivatized, from the light absorbance of the compound.
The GGT activity dependency of the cell proliferation inhibitory activity of the EHC-bonded glutamic acid derivative according to Synthesis Example 6 was evaluated using OS-RC-2 cells having high GGT activity.
OS-RC-2 cells were inoculated by a method similar to that of Test Example 10. After the cells were incubated for one day, GGsTop (Wako Pure Chemical Industries, Ltd.), which is a GGT inhibitor, was added to the cells at a final concentration of 10 μM, and the cells were incubated for one hour. Subsequently, the EHC-bonded glutamic acid derivative according to Synthesis Example 6 was added to the cells at a final concentration of 0.0001 to 1 μM. After the cells were incubated for 6 hours, the interior of the wells was washed, and after the cells were incubated for 3 days, the cell proliferation suppressive activity was evaluated by a method similar to that of Test Example 10.
By a similar operation, the cell proliferation suppressive activity was evaluated using EHC, which is the active ingredient of Synthesis Example 6, from the light absorbance of the compound.

[5] = Test on pharmacokinetics of Synthesis Example 1 (tissue concentrations, OS-RC-2 tumor-bearing mice); format: in vivo, SCID mice; details: for Unchanged drug concentration: value after 5 minutes, 5 mg/kg in terms of doxorubicin i.v.
Description: Human renal cell cancer OS-RC-2 tumors that had been subcutaneously subcultured in SCID mice were produced into blocks that measured about 2 mm on each side, and the blocks were subcutaneously transplanted into SCID mice using a trocar.
At time points of 5 minutes, 3 hours, and 24 hours after the administration, various tissues such as blood plasma, heart, liver, bone marrow, and tumor were collected under ether anesthesia.

[6] = tested on: human renal cell cancer OS-RC-2 tumors; test: Test on antitumor effect of Synthesis Example 1, OS-RC-2 tumors; format: in vivo, SCID mice; details: two times at an interval of 14 days
Description: By an operation similar to that of Test Example 12, human renal cell cancer OS-RC-2 tumors were subcutaneously transplanted into SCID mice, and tumor engraftment was confirmed.
(§6) After the administration, the major axis (L) and the minor axis (W) of a tumor were measured using calipers at an interval of 2 to 3 days, the tumor volume was calculated by the formula: (L×W^2)/2, and the tumor volume change rate from the administration initiation day was determined.

[7] = tested on: human ovarian cancer SHIN-3 tumors; test: Test on antitumor effect of Synthesis Example 1, SHIN-3 tumors; format: in vivo; details: three times at an interval of 7 days
Description: By an operation similar to that of Test Example 12, human ovarian cancer SHIN-3 tumors were subcutaneously transplanted into SCID mice, and tumor engraftment was confirmed.
as §6

[8] = 20 mg/kg-administered group, i.v.

SMILES: COc1cccc2c1C(=O)c1c(O)c3c(c(O)c1C2=O)C[C@@](O)(C(=O)CO)CC3OC1CC(NC(=O)OCc2ccc(NC(=O)CCC(N)C(=O)O)cc2)C(O)C(C)O1 (stereo partly drawn) [Synthesis Example 1, (((4-((S)-4-amino-4-carboxybutanamide)benzyl)oxy)carbonyl)doxorubicin]
- Stability in PBS solution (release of doxorubicin) [1]: did not release doxorubicin in a PBS solution and was chemically stable
- inhibition at 10 µM [2]: 76%
- inhibition at 10 µM [3]: 13%
- Effect of GGT inhibitor on cell proliferation suppressive activity [4]: completely inhibited the activity
- Unchanged drug concentration ([5]; Blood plasma): 9.36 μg/mL or g
- Unchanged drug concentration ([5]; Bone marrow): 0.336 μg/mL or g
- Unchanged drug concentration ([5]; Heart): 1.63 μg/mL or g
- Unchanged drug concentration ([5]; Liver): 60.6 μg/mL or g
- Unchanged drug concentration ([5]; Tumor): 0.192 μg/mL or g
- Concentration of doxorubicin produced, compared to doxorubicin hydrochloride ([5]; blood plasma, liver, bone marrow, and heart (GGT expressed at a low level)): low
- Concentration of doxorubicin produced, compared to doxorubicin hydrochloride ([5]; tumor (GGT expressed at a high level)): high
- Antitumor effect (relative tumor volume) versus control drug [6, 8]: antitumor effect that was equal to the effect of the doxorubicin hydrochloride-administered group (5 mg/kg)
- Antitumor effect (relative tumor volume) ([6]; 5 or 20 mg/kg i.v.): dose-dependent antitumor effect
- Antitumor effect (relative tumor volume) versus control drug [7, 8]: antitumor effect that was equivalent to that of the control drug
- Antitumor effect (relative tumor volume) ([7]; 5 or 20 mg/kg i.v.): dose-dependent antitumor effect

Source: patent US20200190101A1, “Composition Containing Novel Glutamic Acid Derivative And Block Copolymer, And Use Thereof” (Nippon Kayaku Kabushiki Kaisha, priority 2015, published 2020)
